Measured values published in article PMC9510126, “Hydrophobicity is a key determinant in the activity of arginine-rich cell penetrating peptides” (Scientific Reports, 2022).
Entries after “also recorded” stand apart in the source; their conditions may differ. Ends that are not written are not given here.

Legend:
[1] = Zeta potential of BMP LUVs in contact with peptides; type: binding; conditions: 0.33 µM peptide, 50 µM lipid (P:L 1:150), PBS pH 5.5, 25 °C, triplicate
Method: The interaction partners of CPPs that may mediate direct plasma membrane translocation remain undefined. It is therefore unclear which liposome system can be used to probe this activity. […] This permeabilization is consistent with a leaky fusion process, where peptide-induced contact between liposomes is required for leakage. In order to assess whether similar processes are involved with peptides of the d(X)TAT series, LUVs were loaded with calcein to probe leakage. LUVs were prepared with either 65:15:20 PC:PE:Chol or 77:19:4 BMP:PC:PE, lipid compositions consistent with plasma membrane /early endosomes (PM/EE) bilayers or late endosome (LE) bilayers, respectively[36],[37]. Peptides were added to liposomes suspensions at various peptide-to-lipid ratios, and the release of calcein was monitored by gel filtration. […] The mixtures were then added to a folded capillary zeta cell for measurement on a Zetasizer Nano-zs (Malvern). Instrument was set to hold at 25 °C and automatically determine the optimal voltage and attenuator positions for each measurement. Each sample was set to be measured three times by the instrument and the average of these measurements was used to determine the zeta potential for a single sample. This experiment was performed in triplicate for each condition.

[2] = C18 reverse phase HPLC hydrophobicity of (X)TAT and d(X)TAT peptides; type: physicochemical; conditions: chromatographic, C18, 0–40% B over 20 min, 0.1% TFA (pH 2); ranking within the d(X)TAT series
Method: In order to assess the hydrophobicity contributed by each X group, the peptides were first analyzed by reverse phase HPLC using a C18 column, using gradients of buffer A (water/TFA 99.9:0.1) and buffer B (acetonitrile/water/TFA 89.9:10:0.1 v:v:v) (gradient of 0–40% B over 20 min). […] All d(X)TAT peptides eluted over a range of 10–35% acetonitrile. […] One caveat of this approach is that the buffer system used for peptide analysis is pH 2 (due to the presence of TFA, required to protonate residue side chains). However, pH 2 is not representative of the pH that CPPs may be exposed to when in contact with cells, either pH 7.2 outside the plasma membrane, or pH between 6.5 and 4.5 while inside acidic endosomes. In order to establish the relative hydrophobicities of d(X)TAT peptides at these pHs, we sought to use other techniques, including thin layer chromatography using C18, aluminum oxide or silica stationary phases. Unfortunately, the arginine-rich peptides could not be separated on these systems. To solve this problem, each individual X group was synthesized, using acetylated and amidated N and C-terminal positions to mimic the peptide backbone found in the d(X)TAT constructs (Fig. 1A, Figure S11). Each Ac-X-NH2 group was analyzed by HPLC and by RP18 TLC, using 40% acetonitrile and 60% PBS as mobile phase. The HPLC elutions of Ac-X-NH2 correlated with the HPLC elutions of their respective d(X)TAT counterparts (Fig. 1C). Similarly, the relative hydrophobicities of Ac-X-NH2 determined by TLC (measured as 1-Rf) at pH 4 or 8 were in good agreement with the results obtained by HPLC (Fig. 1D). […] In the case of DEAC, the protonation state of the fluorophore has, to our knowledge, not been characterized.
All rpHPLC retention times were analyzed using an Agilent HP 1200 series instrument on an analytical Phenomenex Luna Omega Polar C18 column (5 μm, 4.6 mm × 250 mm). The flow rate was 2 mL/min, and detection was at 214 nm. A binary solvent system was used comprising 99.9% H2O/0.1% TFA (solvent A) and 90% Acetonitrile/9.9% H2O/0.1% TFA (solvent B). […]

Which “effect on apparent zeta potential of BMP-rich LUVs” value [1] does the source give for “d(K(Ac))TAT: disulfide dimer of CXRKKRRQRRRG with X = lysine conjugated to an acetyl group (CK(Ac)RKKRRQRRRG-NH2; also: disulfide dimer)” here?
The value was “largest effect”.

And the “relative hydrophobicity of X group by C18 HPLC” value [2]?
Its value is “least hydrophobic; also recorded: lowest peptide on the hydrophobicity scale”.
